Data published in patent publication US20230346797A1, “INHIBITORS OF THE PLASMODIAL SURFACE ANION CHANNEL AS ANTIMALARIALS” (The United States of America,as represented by the …, priority 2008, published 2023).

Tests used:
[1] = test system: P. falciparum; assay: In vitro parasite growth inhibition by combinations of two PSAC antagonists (isobologram)
Method: Parasite killing by identified PSAC antagonists was evaluated using a SYBR Green I-based fluorescence assay for parasite nucleic acid in 96-well format. […] Cultures were maintained for 3 days at 37° C. in 5% 02, 5% CO2. […] For each antagonist concentration, the mean of triplicate measurements was calculated after subtraction of background fluorescence from cultures killed by 20 μM chloroquine, a known antimalarial agent.
The solid line represents the line of additive killing.

[2] = test system: P. falciparum; assay: In vitro parasite growth inhibition, SYBR Green I-based fluorescence assay for parasite nucleic acid; type: cell-based; settings: Plasmodium falciparum, 72 h; 3 days culture; read-out: In vitro growth inhibitory IC50
[3] = in combination with compound 11 (Comp. A)
[4] = in combination with compound 24 (Comp. A)
[5] = in combination with compound 26 (Comp. A)
[6] = in combination with compound 31 (Comp. A)

Row | Compound | IC50 [2] | other results
1 | CCc1nnc2sc(-c3ccc(NC(=O)c4ccc(N5CCCC5)c([N+](=O)[O-])c4)cc3)nn12 [Compound 17] | 39 µM | –
2 | CCCCCn1c(=O)c2nc(-c3ccc(OC)cc3)oc2c2ccccc21 [Compound 34] | 15 µM | –
3 | CCC(Cc1ccccc1)NC(=O)c1ccc2c(c1)NC(=O)c1ccccc1S2 (stereo not shown) [Compound 11] | 3 µM | –
4 | COc1cc(OC)nc(Sc2ccc(NC(=O)c3ccc(C(C)(C)C)cc3)cc2)n1 [Compound 36] | – | parasite killing by combination [1, 4]: S
5 | Cc1ccc(C)c(N2CCN(C(=O)c3ccc4c(c3)NC(=O)c3ccccc3S4)CC2)c1 [Compound 5] | 1.33 µM | –
6 | O=C1Nc2cc(C(=O)N3CCN(c4ccccc4)CC3)ccc2Sc2ccccc21 [Compound 3] | 0.67 µM | –
7 | Cc1cccc(N2CCN(C(=O)c3ccc4c(c3)NC(=O)c3ccccc3S4)CC2)c1C [Compound 2] | 1 µM | –
8 | O=C(COc1ccc2ccccc2c1)Nc1cccc(-c2nc3ncccc3o2)c1 [Compound 15] | 6 µM | –
9 | CCOc1ccc(C(=O)Nc2ccc(-c3nn4c(C)nnc4s3)cc2)cc1 [Compound 13] | 3.85 µM | parasite killing by combination [1, 3]: S; parasite killing by combination [1, 4]: S; parasite killing by combination [1, 5]: S; parasite killing by combination [1, 6]: S; parasite killing by combination ([1]; in combination with compound 32 (Comp. A)): S; parasite killing by combination ([1]; in combination with compound 33 (Comp. A)): S; parasite killing by combination ([1]; in combination with compound 34 (Comp. A)): S
10 | COc1ccc(OCC(=O)Nc2ccc(-c3nn4c(C)nnc4s3)cc2)cc1 [Compound 16] | 4.98 µM | parasite killing by combination [1, 4]: S; parasite killing by combination ([1]; in combination with compound 35 (Comp. A)): S
11 | CCCCOc1ccc(C(=O)Nc2ccc(-c3nn4c(C)nnc4s3)cc2)cc1 [Compound 18] | 2.14 µM | parasite killing by combination, isobologram (FIG. 3C) ([1]; in combination with compound 24 (component A antagonist), mixtures producing 50% parasite killing): synergistic parasite killing
12 | O=C1Nc2cc(C(=O)N3CCC(N4CCCCC4)CC3)ccc2Sc2ccccc21 [Compound 9] | 6.9 µM | –
13 | O=C1Nc2cc(C(=O)N3CCC(Cc4ccccc4)CC3)ccc2Sc2ccccc21 [Compound 10] | 3.01 µM | –

The next lines start with results.

Row | IC50 [2] | Compound | other results
14 | 4 µM | COc1ccc2cc3cc(C(=O)N(C)C4CCCCC4)oc3nc2c1 [Compound 25] | parasite killing by combination [1, 3]: S; parasite killing by combination [1, 4]: S; parasite killing by combination [1, 5]: S; parasite killing by combination [1, 6]: S
15 | 2.74 µM | Cc1nnc2sc(-c3ccc(NC(=O)c4ccc(Br)o4)cc3)nn12 [Compound 19] | –
16 | > 20 µM | COc1ccc(-c2nc3c(=O)n(C)c4ccccc4c3o2)cc1 [Compound 33] | –
17 | 36.7 µM | Cc1cc(-c2nn3c(C)nnc3s2)ccc1NC(=O)C(C)C [Compound 23] | –
18 | 21.5 µM | CCCCCC(=O)Nc1cc(-c2nn3c(C)nnc3s2)ccc1C [Compound 22] | –
19 | 21.6 µM | Cc1cc(-c2nn3c(C)nnc3s2)ccc1NC(=O)c1ccco1 [Compound 20] | –
20 | 6.9 µM | CCCN(C(=O)c1cc2cc3ccc(C)cc3nc2o1)c1cccc(C)c1 [Compound 26] | –
21 | 10 µM | O=C(Nc1ccc(-c2noc(-c3cccs3)n2)cc1)c1cccnc1 [Compound 21] | parasite killing by combination [1, 4]: S
22 | 3 µM | COc1ccc(-c2nc3c(=O)[nH]c4ccccc4c3s2)cc1 [Compound 32] | –
